Source: patent US7771761B2, “Cheese with calcium lactate crystal inhibitor” (Regents of The University of Minnesota, priority 2005, dated 2010)
Counter-ions that a name gives are not always drawn. Like-named read-outs stand apart in the source and are kept apart here.

Tests used:
[1] = Solubility model Example 4: lactate analysis by HPLC; conditions: for Lactate analysis After Storage: 1.5% additive, 14 days at 7° C., filtered supernatant
Method: (§1) Demineralized water (60° C.) was then added to the flask to obtain a final weight of 100 g and the flask was stirred to dissolve the calcium lactate powder. Subsequently a piece of 1.5×3 cm sand paper was added to the flask to provide a nucleation site for calcium lactate crystal formation and the flask was sealed with a rubber stopper.
(§2) After preparation a sample of each solution was collected.
(§3) Subsequently all solutions were stored at 7° C. for 14 days. After 14 days the flasks were visually inspected for the presence of crystals on the sand paper and the solutions were filtered at 7° C. through filter paper (Whatman 4; Whatman International Ltd., Maidstone, England).
(§4) The supernatant and the sample collected prior to storage were analyzed for lactic acid using High Performance Liquid Chromatography (HPLC) and for calcium content by Atomic Absorption Spectroscopy (AAS), providing the results reported below in Tables II and III.

[2] = Solubility model Example 4: calcium analysis by Atomic Absorption Spectroscopy; conditions: for Calcium analysis After Storage: 1.5% additive, 14 days at 7° C., filtered supernatant
Method: as §1, §2, §3, §4

[3] = Solubility model Example 3: filtrate analysis of calcium lactate solutions with sodium gluconate; format: physicochemical; conditions: 48 hours at about 40° F., cold filtered
Text: A test was run to determine the ability of ionic gluconate provided by sodium gluconate in an aqueous solution to bind with lactate over time, to thereby model the believed primary phenomenon resulting in reduced formation of calcium lactate crystal. In each sample of the model, 14.1 g of calcium lactate pentahydrate (CH3CHOHCOO)2 Ca.5H2O) was used to provide 10 g of calcium lactate (1.83 g calcium ion, 8.17 g lactate ion). Different amounts of sodium gluconate (NaC6H11O7), amounts shown in Table I below) were combined with the calcium lactate pentahydrate and diluted to 100 ml with water. The samples were prepared at room temperature and each mixed well. The samples were then refrigerated at about 40° F. for 48 hours, with each sample being mixed several times during the 48 hour holding period. After the holding period, the samples were cold filtered (40° F.) and the filtrate analyzed for lactate, gluconate and calcium concentrations.

[4] = Solubility model Example 4: visual inspection for crystals on sand paper in calcium lactate solution; format: physicochemical; conditions: 1.5% additive in 5.31 g calcium lactate/100 g solution, pH 6.6, 14 days at 7° C.
Method: as §1, §2, §3

Structure (SMILES)	Lactate analysis After Storage [1] [%]	Calcium analysis After Storage [2] [%]	FILTRATE RESULTS C6H11O7(%) ([3]; 5 g NaC6H11O7 added to 14.1 g calcium lactate pentahydrate in 100 ml)	FILTRATE RESULTS C6H11O7(%) ([3]; 10 g NaC6H11O7 added to 14.1 g calcium lactate pentahydrate in 100 ml)	FILTRATE RESULTS C6H11O7(%) ([3]; 15 g NaC6H11O7 added to 14.1 g calcium lactate pentahydrate in 100 ml)	FILTRATE RESULTS C6H11O7(%) ([3]; 20 g NaC6H11O7 added to 14.1 g calcium lactate pentahydrate in 100 ml)	FILTRATE RESULTS C6H11O7(%) ([3]; 25 g NaC6H11O7 added to 14.1 g calcium lactate pentahydrate in 100 ml)	presence of crystals on the sand paper (visual inspection) [4]	Lactate analysis Initial Concentration [1] [%]	Calcium analysis Initial Concentration [2] [%]	Lactate analysis Initial Concentration ([1]; 0 days, 1.5 %, pH 6.6) [%]	Calcium analysis Initial Concentration ([2]; 0 days, 1.5 %, pH 6.6) [%]
O=C([O-])[C@H](O)[C@@H](O)[C@H](O)[C@H](O)CO.[Na+] [Sodium gluconate, sodium gluconate]	4.41	1.08	2.97	7.55	11.15	14.21	16.61	no crystals were visually observed				
O=C(O)[C@H](O)[C@@H](O)[C@H](O[C@@H]1O[C@H](CO)[C@H](O)[C@H](O)[C@H]1O)[C@H](O)CO [Sodium lactobionate, lactobionic acid]	4.33	1.04						no crystals were visually observed	4.33	1.05		
O=C(O)CC(O)C(=O)O (stereo not drawn) [Sodium malate, malic acid disodium salt]	4.47	1.06						no crystals were visually observed			4.43	1.07
